Measured values reported in patent US11254663B2 (BRISTOL-MYERS SQUIBB COMPANY, priority 2019, dated 2022).

biological target: FXR (Homo sapiens (Human), UniProt Q96RI1); experiment: transient human FXR/Gal4-luciferase reporter assay; assay type: cell-based; conditions: not given
Outline: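 HEK293 cells stably carrying a 5×Gal4 response element–firefly luciferase reporter were transiently transfected overnight with a Gal4 DBD–human FXR LBD fusion plasmid. Compound was added in DMSO and cells were incubated overnight at 37 °C, 5% CO2. Activity was read as Steady-Glo luminescence.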

Chain of FXR (Q96RI1 262-486): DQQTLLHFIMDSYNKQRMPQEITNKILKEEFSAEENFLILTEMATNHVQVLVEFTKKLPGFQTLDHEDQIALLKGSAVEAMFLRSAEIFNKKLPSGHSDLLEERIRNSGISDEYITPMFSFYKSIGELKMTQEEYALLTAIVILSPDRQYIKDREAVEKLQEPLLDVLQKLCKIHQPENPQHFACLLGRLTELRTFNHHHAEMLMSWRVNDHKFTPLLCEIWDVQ

Molecule | EC50 [nM]
CCOc1ccc(-c2ccnc(N(CC34CCC(c5noc(C(C)(C)C)n5)(CC3)CC4)C(=O)C34CC(F)(C3)C4)c2)cc1 [Example 532, N-((4-(5-(tert-butyl)-1,2,4-oxadiazol-3-yl)bicyclo[2.2.2]octan-1-yl)methyl)-N-(4-(4-ethoxyphenyl)pyridin-2-yl)-3-fluorobicyclo[1.1.1]pentane-1-carboxamide] | 86
CCOc1ncc(-c2cccc(N(CC34CCC(c5noc(C6(C)COC6)n5)(CC3)CC4)C(=O)[C@H]3C[C@](O)(C(F)(F)F)C3)c2)cn1 [Example 520, (1S,3S)—N-(3-(2-ethoxypyrimidin-5-yl)phenyl)-3-hydroxy-N-((4-(5-(3-methyloxetan-3-yl)-1,2,4-oxadiazol-3-yl)bicyclo[2.2.2]octan-1-yl)methyl)-3-(trifluoromethyl)cyclobutane-1-carboxamide] | 449
CCOc1ncc(-c2cccc(N(CC34CCC(c5nc(C(F)F)no5)(CC3)CC4)C(=O)C34CC(F)(C3)C4)c2)cn1 [Example 470, N-((4-(3-(difluoromethyl)-1,2,4-oxadiazol-5-yl)bicyclo[2.2.2]octan-1-yl)methyl)-N-(3-(2-ethoxypyrimidin-5-yl)phenyl)-3-fluorobicyclo[1.1.1]pentane-1-carboxamide] | 164
CC(C)(C)c1nc(C23CCC(CN(C(=O)C45CC(F)(C4)C5)c4cc(-c5cnc(C6CC6)nc5)ccn4)(CC2)CC3)no1 [Example 539, N-((4-(5-(tert-butyl)-1,2,4-oxadiazol-3-yl)bicyclo[2.2.2]octan-1-yl)methyl)-N-(4-(2-cyclopropylpyrimidin-5-yl)pyridin-2-yl)-3-fluorobicyclo[1.1.1]pentane-1-carboxamide] | 119
CCc1cnc(-c2ccnc(N(CC34CCC(c5noc(C(C)(C)C)n5)(CC3)CC4)C(=O)C34CC(F)(C3)C4)c2)nc1 [Example 543, N-((4-(5-(tert-butyl)-1,2,4-oxadiazol-3-yl)bicyclo[2.2.2]octan-1-yl)methyl)-N-(4-(5-ethylpyrimidin-2-yl)pyridin-2-yl)-3-fluorobicyclo[1.1.1]pentane-1-carboxamide] | 14
CC(F)(F)c1nc(C23CCC(CN(C(=O)C45CC(F)(C4)C5)c4cccc(-c5ccc(OC(F)F)cc5)c4)(CC2)CC3)no1 [Example 528, N-((4-(5-(1,1-difluoroethyl)-1,2,4-oxadiazol-3-yl)bicyclo[2.2.2]octan-1-yl)methyl)-N-(4′-(difluoromethoxy)-[1,1′-biphenyl]-3-yl)-3-fluorobicyclo[1.1.1]pentane-1-carboxamide] | 73
CCOc1ncc(-c2cccc(N(CC34CCC(c5noc(C(C)(C)C)n5)(CC3)CC4)C(=O)C3CC(O)(C(F)(F)F)C3)c2)cn1 [Example 509, (1S,3S)—N-((4-(5-(tert-butyl)-1,2,4-oxadiazol-3-yl)bicyclo[2.2.2]octan-1-yl)methyl)-N-(3-(2-ethoxypyrimidin-5-yl)phenyl)-3-hydroxy-3-(trifluoromethyl)cyclobutane-1-carboxamide] | 230

same assay, conditions: Gal4-hFXR fusion construct, HEK293 reporter cells; response relative to 8 μM GW-4064

Molecule | EC50 [nM]
O=C(N(CC12CCC(c3nc(C4CC4)no3)(CC1)CC2)c1cccc(-c2ccc3nc(O)ccc3c2)c1)C12CC(F)(C1)C2 [Example 331, N-((4-(3-cyclopropyl-1,2,4-oxadiazol-5-yl)bicyclo[2.2.2]octan-1-yl)methyl)-3-fluoro-N-(3-(2-hydroxyquinolin-6-yl)phenyl)bicyclo[1.1.1]pentane-1-carboxamide] | 231
O=C(N(CC12CCC(c3nc(C4CC4)no3)(CC1)CC2)c1cccc(-c2cccn3ncnc23)c1)C12CC(F)(C1)C2 [Example 309, N-(3-([1,2,4]triazolo[1,5-a]pyridin-8-yl)phenyl)-N-((4-(3-cyclopropyl-1,2,4-oxadiazol-5-yl)bicyclo[2.2.2]octan-1-yl)methyl)-3-fluorobicyclo[1.1.1]pentane-1-carboxamide] | 221
CCc1ccc(-c2cccc(N(CC34CCC(c5nc(C6CC6)no5)(CC3)CC4)C(=O)C34CC(F)(C3)C4)c2)cc1 [Example 285, N-((4-(3-cyclopropyl-1,2,4-oxadiazol-5-yl)bicyclo[2.2.2]octan-1-yl)methyl)-N-(4′-ethyl-[1,1′-biphenyl]-3-yl)-3-fluorobicyclo[1.1.1]pentane-1-carboxamide] | 225
COc1cc(-c2cccc(N(CC34CCC(c5nc(C6CC6)no5)(CC3)CC4)C(=O)C34CC(F)(C3)C4)c2)ccc1F [Example 260, N-((4-(3-cyclopropyl-1,2,4-oxadiazol-5-yl)bicyclo[2.2.2]octan-1-yl)methyl)-3-fluoro-N-(4′-fluoro-3′-methoxy-[1,1′-biphenyl]-3-yl)bicyclo[1.1.1]pentane-1-carboxamide] | 693
O=C(N(CC12CCC(c3nc(C4CC4)no3)(CC1)CC2)c1cccc(-c2ccc(NS(=O)(=O)C3CC3)cc2)c1)C12CC(F)(C1)C2 [Example 269, N-(4′-(cyclopropanesulfonamido)-[1,1′-biphenyl]-3-yl)-N-((4-(3-cyclopropyl-1,2,4-oxadiazol-5-yl)bicyclo[2.2.2]octan-1-yl)methyl)-3-fluorobicyclo[1.1.1]pentane-1-carboxamide] | 142
CC(C)(C)c1nc(C23CCC(CN(C(=O)C45CC(F)(C4)C5)c4cccc(-c5ccc6[nH]c(=O)oc6c5)c4)(CC2)CC3)no1 [Example 447, N-((4-(5-(tert-butyl)-1,2,4-oxadiazol-3-yl)bicyclo[2.2.2]octan-1-yl)methyl)-3-fluoro-N-(3-(2-oxo-2,3-dihydrobenzo[d]oxazol-6-yl)phenyl)bicyclo[1.1.1]pentane-1-carboxamide] | 87
Cn1nc(C23CCC(CN(C(=O)C45CC(F)(C4)C5)c4cccc(-c5ccc6[nH]c(=O)oc6c5)c4)(CC2)CC3)cc1C1CC1 [Example 411, N-((4-(5-cyclopropyl-1-methyl-1H-pyrazol-3-yl)bicyclo[2.2.2]octan-1-yl)methyl)-3-fluoro-N-(3-(2-oxo-2,3-dihydrobenzo[d]oxazol-6-yl)phenyl)bicyclo[1.1.1]pentane-1-carboxamide] | 144
CC(C)(F)c1nc(C23CCC(CN(c4cccc(N5CC6(COC6)C5)c4)C(=O)[C@H]4C[C@](O)(C(F)(F)F)C4)(CC2)CC3)no1 [Example 592, (cis)-N-(3-(2-oxa-6-azaspiro[3.3]heptan-6-yl)phenyl)-N-((4-(5-(2-fluoropropan-2-yl)-1,2,4-oxadiazol-3-yl)bicyclo[2.2.2]octan-1-yl)methyl)-3-hydroxy-3-(trifluoromethyl)cyclobutane-1-carboxamide] | 970
CC(F)(F)c1nc(C23CCC(CN(C(=O)C4CC(O)(C(F)(F)F)C4)c4cccc(-c5ccc(C(O)C(F)F)cc5)c4)(CC2)CC3)no1 (single isomer, unassigned) [Example 628 (first eluting isomer)] | 92
N#Cc1cc(-c2cccc(N(CC34CCC(c5nc(C6CC6)no5)(CC3)CC4)C(=O)C34CC(F)(C3)C4)c2)ccc1F [Example 294, N-(3′-cyano-4′-fluoro-[1,1′-biphenyl]-3-yl)-N-((4-(3-cyclopropyl-1,2,4-oxadiazol-5-yl)bicyclo[2.2.2]octan-1-yl)methyl)-3-fluorobicyclo[1.1.1]pentane-1-carboxamide] | 579
Cc1nc2ccc(-c3ccnc(N(CC45CCC(c6nc(C(C)(C)C)no6)(CC4)CC5)C(=O)C45CC(F)(C4)C5)c3)cc2s1 [Example 551, N-((4-(3-(tert-butyl)-1,2,4-oxadiazol-5-yl)bicyclo[2.2.2]octan-1-yl)methyl)-3-fluoro-N-(4-(2-methylbenzo[d]thiazol-6-yl)pyridin-2-yl)bicyclo[1.1.1]pentane-1-carboxamide] | 55
CC(C)Oc1ccc(-c2ccnc(N(CC34CCC(c5noc(C(C)(F)F)n5)(CC3)CC4)C(=O)OC(C)(C)C(F)(F)F)c2)cc1 [Example 610, 1,1,1-trifluoro-2-methylpropan-2-yl ((4-(5-(1,1-difluoroethyl)-1,2,4-oxadiazol-3-yl)bicyclo[2.2.2]octan-1-yl)methyl)(4-(4-isopropoxyphenyl)pyridin-2-yl)carbamate] | 47
Cc1nc2cc(-c3cccc(N(CC45CCC(c6nc(C7CC7)no6)(CC4)CC5)C(=O)C45CC(F)(C4)C5)c3)ccc2o1 [Example 305, N-((4-(3-cyclopropyl-1,2,4-oxadiazol-5-yl)bicyclo[2.2.2]octan-1-yl)methyl)-3-fluoro-N-(3-(2-methylbenzo[d]oxazol-5-yl)phenyl)bicyclo[1.1.1]pentane-1-carboxamide] | 301
N-((4-(3-cyclopropyl-1,2,4-oxadiazol-5-yl)bicyclo[2.2.2]octan-1-yl)methyl)-3-fluoro-N-(3-morpholinophenyl)bicyclo[1.1.1]pentane-1-carboxamide [Example 417] | 207
CS(=O)(=O)Nc1ccc(-c2cccc(N(CC34CCC(c5cc(C(F)(F)F)ccn5)(CC3)CC4)C(=O)C34CC(F)(C3)C4)c2)cc1 [Example 355, 3-fluoro-N-(4′-(methylsulfonamido)-[1,1′-biphenyl]-3-yl)-N-((4-(4-(trifluoromethyl)pyridin-2-yl)bicyclo[2.2.2]octan-1-yl)methyl)bicyclo[1.1.1]pentane-1-carboxamide] | 780
O=C(N(CC12CCC(c3nc(C4CC4)no3)(CC1)CC2)c1cccc(-c2ccc(C(F)(F)F)nc2)c1)C12CC(F)(C1)C2 [Example 280, N-((4-(3-cyclopropyl-1,2,4-oxadiazol-5-yl)bicyclo[2.2.2]octan-1-yl)methyl)-3-fluoro-N-(3-(6-(trifluoromethyl)pyridin-3-yl)phenyl)bicyclo[1.1.1]pentane-1-carboxamide] | 308
NS(=O)(=O)c1cccc(-c2cccc(N(CC34CCC(c5nc(C6CC6)no5)(CC3)CC4)C(=O)C34CC(F)(C3)C4)c2)c1 [Example 257, N-((4-(3-cyclopropyl-1,2,4-oxadiazol-5-yl)bicyclo[2.2.2]octan-1-yl)methyl)-3-fluoro-N-(3′-sulfamoyl-[1,1′-biphenyl]-3-yl)bicyclo[1.1.1]pentane-1-carboxamide] | 521
